US8791132B2, “Compounds and methods for treatment of hypertension” (Medivation Technologies, Inc., priority 2011, dated 2014)
Values joined by “and” are separate entries in the source; they are usually repeats but may differ in a detail not shown here. Equal values may be shown once. Read-outs that look alike come from different tables or passages of the source.

Legend:
[1] = molecular target: T1, human recombinant adrenergic α2B receptor (Homo sapiens, UniProt P18089); assay: Radioligand binding, adrenergic α2B ([3H]Rauwolscine); conditions: for Percentage inhibition of ligand binding, Adrenergic α2B (0.03 μM) / Percentage inhibition of ligand binding, Adrenergic α2B: 0.03 µM
T1 construct: expressed in transfected cells; host or cells: CHO-K1
T1 sequence (P18089 1-450): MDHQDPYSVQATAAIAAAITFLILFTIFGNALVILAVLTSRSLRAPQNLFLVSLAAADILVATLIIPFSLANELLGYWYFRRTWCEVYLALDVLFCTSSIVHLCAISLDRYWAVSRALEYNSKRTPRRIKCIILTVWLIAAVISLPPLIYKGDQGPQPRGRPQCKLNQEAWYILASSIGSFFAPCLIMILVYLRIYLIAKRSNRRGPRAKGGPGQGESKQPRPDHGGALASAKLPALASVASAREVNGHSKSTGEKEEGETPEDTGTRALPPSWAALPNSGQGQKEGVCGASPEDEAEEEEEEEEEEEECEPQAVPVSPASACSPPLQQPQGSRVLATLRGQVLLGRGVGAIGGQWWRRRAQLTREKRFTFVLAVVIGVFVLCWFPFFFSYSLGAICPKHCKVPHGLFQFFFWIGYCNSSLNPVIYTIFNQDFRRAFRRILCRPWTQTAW
Procedure, shortened: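 Values are percent inhibition of specific radioligand binding. The receptor, expressed in CHO-K1 cells, was exposed to 2.5 nM [3H]Rauwolscine at 25° C for 60 min, with 10 μM Prazosin marking non-specific binding.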

[2] = molecular target: T2, human recombinant adrenergic α2A receptor (Homo sapiens, UniProt P08913); assay: Radioligand binding, adrenergic α2A ([3H]MK-912); conditions: for Percentage inhibition of ligand binding, Adrenergic α2A (0.1 μM) / Percentage inhibition of ligand binding, Adrenergic α2A: 0.1 µM
T2 construct: expressed in transfected cells; host or cells: insect Sf9 cells
T2 sequence (P08913 1-465): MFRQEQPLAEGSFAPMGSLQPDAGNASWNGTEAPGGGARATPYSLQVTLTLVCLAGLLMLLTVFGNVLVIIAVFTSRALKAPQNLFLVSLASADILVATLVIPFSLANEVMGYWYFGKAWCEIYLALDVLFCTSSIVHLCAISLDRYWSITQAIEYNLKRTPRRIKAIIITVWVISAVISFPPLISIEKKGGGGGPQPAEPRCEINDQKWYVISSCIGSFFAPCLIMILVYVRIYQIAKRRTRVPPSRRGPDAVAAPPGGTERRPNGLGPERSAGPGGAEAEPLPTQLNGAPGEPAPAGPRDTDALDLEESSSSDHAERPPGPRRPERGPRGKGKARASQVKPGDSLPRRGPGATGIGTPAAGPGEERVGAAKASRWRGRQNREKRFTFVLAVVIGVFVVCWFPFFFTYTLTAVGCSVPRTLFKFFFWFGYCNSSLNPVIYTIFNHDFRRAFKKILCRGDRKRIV
Procedure, shortened: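 Sf9 membranes, 1 nM [3H]MK-912, 60 min, 25 °C, Tris-HCl pH 7.4/MgCl2/EDTA buffer. NSB: 10 μM WB-4101. Filtration, counting; % inhibition of specific binding.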

[3] = molecular target: T3, rat adrenergic α1B receptor (Rattus norvegicus, UniProt P15823); assay: Radioligand binding, adrenergic α1B ([3H]Prazosin)
T3 construct: rat adrenergic α1B receptor obtained from Wistar Rat liver; from tissue; host or cells: Wistar rat liver
T3 sequence (P15823 1-515): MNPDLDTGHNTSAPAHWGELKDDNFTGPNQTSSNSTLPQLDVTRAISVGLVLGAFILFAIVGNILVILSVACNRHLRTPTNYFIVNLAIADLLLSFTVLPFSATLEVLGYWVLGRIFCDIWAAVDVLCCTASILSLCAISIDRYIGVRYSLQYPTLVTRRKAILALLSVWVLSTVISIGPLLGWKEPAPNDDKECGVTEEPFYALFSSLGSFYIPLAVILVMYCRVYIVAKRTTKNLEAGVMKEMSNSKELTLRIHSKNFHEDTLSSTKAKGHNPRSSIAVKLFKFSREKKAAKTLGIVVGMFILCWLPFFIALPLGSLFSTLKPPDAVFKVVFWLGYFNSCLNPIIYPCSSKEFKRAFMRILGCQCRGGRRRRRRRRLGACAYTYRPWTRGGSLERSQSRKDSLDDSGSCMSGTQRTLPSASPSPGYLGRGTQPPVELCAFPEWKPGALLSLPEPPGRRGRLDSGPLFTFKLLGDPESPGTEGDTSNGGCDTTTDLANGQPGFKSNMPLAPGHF
Procedure, shortened: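 Specific binding, taken as total minus that remaining with 10 μM phentolamine, is measured after filtration and counting. Rat liver receptor preparation and 0.25 nM [3H]prazosin are incubated with compound in 50 mM Tris-HCl (pH 7.4, 0.5 mM EDTA) at 25° C for 60 min. Activity is reported as percent inhibition.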

[4] = compound at 0.03 μM, [3H]Rauwolscine, repeat datapoints each shown
[5] = compound at 0.1 μM, [3H]MK-912, repeat datapoints each shown
[6] = compound at 0.1 μM, [3H]Prazosin, repeat datapoints each shown, 0.1 µM
[7] = compound at 0.03 μM, [3H]Rauwolscine, repeat assays, each datapoint shown
[8] = compound at 0.1 μM, [3H]MK-912, repeat assays, each datapoint shown
[9] = compound at 0.1 μM, [3H]Prazosin, repeat assays, each datapoint shown, 0.1 µM
[10] = read-out: Percentage inhibition of ligand binding, Adrenergic α2B (0.03 μM), compound at 0.03 μM, [3H]Rauwolscine, repeat datapoints each shown
[11] = read-out: Percentage inhibition of ligand binding, Adrenergic α2A (0.1 μM), compound at 0.1 μM, [3H]MK-912, repeat datapoints each shown
[12] = read-out: Percentage inhibition of ligand binding, Adrenergic α1B (0.1 μM), compound at 0.1 μM, [3H]Prazosin, repeat datapoints each shown
[13] = 0.03 μM compound, read-out: Percentage inhibition of ligand binding, Adrenergic α2B
[14] = 0.1 μM compound, read-out: Percentage inhibition of ligand binding, Adrenergic α2A
[15] = 0.1 μM compound, read-out: Percentage inhibition of ligand binding, Adrenergic α1B
[16] = compound at 0.03 μM, [3H]Rauwolscine, repeat assays, each datapoint shown, read-out: Percentage inhibition of ligand binding, Adrenergic α2B

| SMILES | Percentage inhibition of ligand binding, Adrenergic α2B (0.03 μM) [1, 4] | Percentage inhibition of ligand binding, Adrenergic α2A (0.1 μM) [2, 5] [%] | Percentage inhibition of ligand binding, Adrenergic α1B (0.1 μM) [3, 6] [%] | Percentage inhibition of ligand binding, Adrenergic α2A [2, 8] [%] | Percentage inhibition of ligand binding, Adrenergic α1B [3, 9] [%] | further results |
| --- | --- | --- | --- | --- | --- | --- |
| CN1CCc2c(c3cc(Cl)ccc3n2CC(O)c2ccncc2)C1 (single isomer, unassigned) [4b] |  |  |  | 7 | 58 | Percentage inhibition of ligand binding, Adrenergic α2B [1, 7]: 46% |
| Cc1ccc2c(c1)c1c(n2CC(OC(=O)C(C)C)c2ccncc2)CCN(C)C1 (single isomer, unassigned) [54b, 2-(1,2,3,4-tetrahydro-2,8-dimethylpyrido[4,3-b]indol-5-yl)-1-(pyridin-4-yl)ethyl isobutyrate] |  |  |  | 66 | 71 | Percentage inhibition of ligand binding, Adrenergic α2B [1, 7]: 106% |
| Cc1cnc2c(c1)c1c(n2CC(O)c2ccc(C)nc2)CCN(C)C1 (single isomer, unassigned) [II-100b] |  |  |  |  |  | Percentage inhibition of ligand binding, Adrenergic α2B ([1]; 0.03 μM compound): 1%; Percentage inhibition of ligand binding, Adrenergic α2A ([2]; 0.1 μM compound): 4%; Percentage inhibition of ligand binding, Adrenergic α1B ([3]; 0.1 μM compound): 24% |
| CN1CCc2c(c3ccccc3n2CC(C)(O)c2cccnc2)C1 (single isomer, unassigned) [173b] | 28% | −2 | 8 |  |  |  |
| Cc1ccc(CCn2c3c(c4c(Cl)ccc(Cl)c42)CCN(C)C3)cn1 [II-249, 5,8-dichloro-2,3,4,9-tetrahydro-2-methyl-9-(2-(6-methylpyridin-3-yl)ethyl)-1H-pyrido[3,4-b]indole] |  |  |  |  |  | inhibition at 0.03 µM [1, 10]: 4%; inhibition at 0.1 µM [2, 11]: 74%; inhibition at 0.1 µM [3, 12]: 6% |
| CCC1c2c(c3cc(C)ccc3n2CC(O)c2ccncc2)CCN1C (stereo not shown) [II-74] |  |  |  |  |  | inhibition at 0.03 µM [1, 13]: 18%; inhibition at 0.1 µM [2, 14]: 10%; inhibition at 0.1 µM [3, 15]: 11% |
| Cc1cnc2c(c1)c1c(n2CC(N=[N+]=[N-])c2ccncc2)CCN(C)C1 (stereo not shown) [V-2, 9-(2-azido-2-(pyridin-4-yl)ethyl)-3,6-dimethyl-6,7,8,9-tetrahydro-5H-pyrrolo[2,3-b:4,5-c′]dipyridine] |  |  |  |  |  | inhibition at 0.03 µM [1, 10]: 61%; inhibition at 0.1 µM [2, 11]: 2%; inhibition at 0.1 µM [3, 12]: 49% |
| Cc1cnc2c(c1)c1c(n2CC(C)(O)c2cccnc2)CCN(C)C1 (single isomer, unassigned) [II-99a] |  |  |  |  |  | Percentage inhibition of ligand binding, Adrenergic α2B ([1]; 0.03 μM compound): 49%; inhibition at 0.1 µM [2, 14]: 24%; Percentage inhibition of ligand binding, Adrenergic α1B ([3]; 0.1 μM compound, 0.1 µM): 12% |
| Cc1ccc2c(c1)c1c(n2CC(C)(N)c2cccnc2)CCN(C)C1 (single isomer, unassigned) [149b, 1-(2,8-dimethyl-3,4-dihydro-1H-pyrido[4,3-b]indol-5(2H)-yl)-2-(pyridin-3-yl)propan-2-amine] | 32% | 19 | 16 |  |  |  |
| Cc1ccc2c(c1)c1c(n2CC(O)c2cccnc2)CCNC1 (single isomer, unassigned) [9a, 2-(8-methyl-1,2,3,4-tetrahydro-pyrido[4,3-b]indol-5-yl)-1-pyridin-3-yl-ethanol] |  |  |  | 4 | 11 | Percentage inhibition of ligand binding, Adrenergic α2B [1, 7]: 23% |
| CN1CCc2c(n(CC(O)c3cccnc3)c3ccc(Cl)cc23)C1 (stereo not shown) [II-87] |  |  |  |  |  | inhibition at 0.03 µM [1, 13]: 24%; inhibition at 0.1 µM [2, 14]: 1%; inhibition at 0.1 µM [3, 15]: 11% |
| Cc1ccc2c(c1)c1c(n2CC(C)(O)c2ccc(F)cc2)CCN(C)C1 (single isomer, unassigned) [90a] |  |  |  | 71 | 74 | inhibition at 0.03 µM [1, 16]: 97% |
| CC(C)(O)CCN1CCc2c(c3cc(Cl)ccc3n2CC(O)c2ccncc2)C1 (single isomer, unassigned) [11b, 4-[8-chloro-5-(2-hydroxy-2-pyridin-4-yl-ethyl)-1,3,4,5-tetrahydro-pyrido[4,3-b]indol-2-yl]-2-methyl-butan-2-ol] |  |  |  | 13 | 18 | Percentage inhibition of ligand binding, Adrenergic α2B [1, 7]: 64% |
| Cc1ccc2c(c1)c1c(n2CC(O)c2ccccn2)CN(C)CC1 (single isomer, unassigned) [22a] |  |  |  | 16 | 19 | inhibition at 0.03 µM [1, 16]: 22% |
| Cc1ccc2c(c1)c1c(n2CC(O)c2ccccn2)CN(C)CC1 (single isomer, unassigned) [22b] |  |  |  | 0 | 9 | Percentage inhibition of ligand binding, Adrenergic α2B [1, 7]: 30% |

The next lines start with results.

| Percentage inhibition of ligand binding, Adrenergic α2B (0.03 μM) [1, 4] | Percentage inhibition of ligand binding, Adrenergic α2A (0.1 μM) [2, 5] [%] | Percentage inhibition of ligand binding, Adrenergic α1B (0.1 μM) [3, 6] [%] | Percentage inhibition of ligand binding, Adrenergic α2A [2, 8] [%] | Percentage inhibition of ligand binding, Adrenergic α1B [3, 9] [%] | SMILES | further results |
| --- | --- | --- | --- | --- | --- | --- |
| 18% | 7 | 10 |  |  | Cc1ccc2c(c1Cl)c1c(n2CC(C)(O)c2cccnc2)CCN(C)C1 (single isomer, unassigned) [II-124b, 1-(9-chloro-2,8-dimethyl-3,4-dihydro-1H-pyrido[4,3-b]indol-5(2H)-yl)-2-(pyridin-3-yl)propan-2-ol] |  |
| 59% and 83% | −2 | 72 |  |  | Cc1ccc2c(c1)c1c(n2CC(O)c2ccc(C(N)=O)cc2)CCN(C)C1 (stereo not shown) [compound 139, 4-[2-(2,8-dimethyl-1,2,3,4-tetrahydro-pyrido[4,3-b]indol-5-yl)-1-hydroxy-ethyl]-benzamide] | Ki ([1]; read-out: Ki α2B): 8.12 nM; inhibition at 0.1 µM ([1]; read-out: Percentage inhibition of ligand binding, Adrenergic α2B (0.1 μM), compound at 0.1 μM, [3H]Rauwolscine, repeat datapoints each shown): 87%; Ki [2]: 390 nM; inhibition at 0.03 µM ([3]; read-out: Percentage inhibition of ligand binding, Adrenergic α1B (0.03 μM), compound at 0.03 μM, [3H]Prazosin, repeat datapoints each shown): 46% |
| 67% | 9 | 42 |  |  | Cc1cc(C)c2c(c1)c1c(n2CC(O)c2ccncc2)CCN2CCCC12 (single isomer, unassigned) [II-125c, 2-(8,10-dimethyl-2,3,5,6-tetrahydro-1H-indolizino[7,8-b]indol-7(11cH)-yl)-1-(pyridin-4-yl)ethanol] |  |
| 78% | 11 | 13 |  |  | Cc1ccc2c(c1)c1c(n2CC(C)(O)c2cccnc2)C(O)CN(C)C1 (single isomer, unassigned) [II-151b] |  |
